Assay results as given in patent US20210195924A1, “PHOTODYNAMIC INACTIVATION METHOD OF SALMONELLA” (SHANGHAI OCEAN UNIVERSITY, priority 2019, published 2021).

Key:
[1] = tested on: vesicular stomatitis virus; settings: ultraviolet radiation; riboflavin 300 μmol/L; under 10 minutes; cited from earlier work
[2] = tested on: Salmonella on contaminated egg shells; experiment: Salmonella inactivation experiment for fresh egg shells; type: cell-based
Protocol: Sterile egg shells were mixed with a Salmonella bacterial solution to be contaminated and divided into three groups as follows: 1, a single photosensitizer group with riboflavin concentration of 150 μmol/L, was subjected to the dark incubation for 40 min without the illumination of a blue light source; 2, a photodynamic experiment group with riboflavin concentration of 150 μmol/L, was subjected to the dark incubation for 40 min under the illumination of the blue light source for 40 min; and 3, a blank reference group with a saline solution having a volume equal to that of the riboflavin solution. Each group was provided with two parallel groups.
Bacteria culture: under a sterile condition, each group of egg shells was diluted with the saline solution for two times and then homogenized by a sterile homogenizing device and diluted. 100 μL diluent with appropriate dilution degrees was inoculated into the TSA solid culture medium and cultured for 24 to 48 h in the thermostatic incubator at 37° C. The number of bacterial colonies in each group was counted.

[3] = tested on: Salmonella typhimurium CICC 21484 and Salmonella enteritidis CMCC 50041; experiment: Riboflavin-mediated photodynamic inactivation of Salmonella in bacterial solution (455-460 nm LED blue light, plate count); type: cell-based
[4] = tested on: Escherichia coli; settings: Gram-negative bacteria Escherichia coli; cited from earlier work
[5] = tested on: Staphylococcus aureus; settings: Gram-positive bacteria Staphylococcus aureus; cited from earlier work

Molecule | virus killing [1] | sterilization rate ([2]; egg shells, photodynamic inactivation with riboflavin as photosensitizer, multiple experiments) [%] | number of bacterial colonies in the egg shells after the PDI treatment ([2]; riboflavin 150 μmol/L, dark incubation 40 min, blue light 40 min, blank reference group 7.4×10^5 CFU/g) | number of bacterial colonies in the egg shells of the single photosensitizer group ([2]; riboflavin 150 μmol/L, dark incubation 40 min, no blue light, blank reference group 7.4×10^5 CFU/g) | amount of Salmonella reduced ([3]; riboflavin 100 μmol/L, incubation time 40 min, illumination time 30 min, initial inoculation about 4.5×10^6 CFU/mL) [Log CFU/mL] | lethality (fatality rate) of Salmonella ([3]; riboflavin 150 μmol/L, dark incubation 40 min, illumination 30 min) [%] | fatality rate of Salmonella ([3]; riboflavin 150 μmol/L, dark incubation 40 min, illumination time 40 min) [%] | lethality (fatality rate) of Salmonella ([3]; riboflavin 150 μmol/L, dark incubation 40 min, no blue light (illumination 0 min)) | amount of Salmonella reduced ([3]; riboflavin 150 μmol/L, incubation 40 min, illumination time 20 min, initial inoculation about 6.75 Log CFU/mL) [Log CFU/mL] | amount of Salmonella reduced ([3]; riboflavin 150 μmol/L, incubation 40 min, illumination time 30 min, initial inoculation about 6.75 Log CFU/mL (Embodiment 3)) [Log CFU/mL] | amount of Salmonella reduced ([3]; riboflavin 150 μmol/L, incubation 40 min, illumination time 40 min, initial inoculation about 6.75 Log CFU/mL) [Log CFU/mL] | amount of Salmonella reduced ([3]; riboflavin 150 μmol/L, incubation 40 min, illumination time 50 min, initial inoculation about 6.75 Log CFU/mL) [Log CFU/mL] | amount of Salmonella reduced ([3]; riboflavin 150 μmol/L, incubation time 40 min, illumination time 30 min, initial inoculation about 4.5×10^6 CFU/mL (Embodiment 1)) [Log CFU/mL] | lethality of Salmonella ([3]; riboflavin 200 μmol/L, dark incubation 40 min, illumination 30 min) [%] | amount of Salmonella reduced ([3]; riboflavin 200 μmol/L, incubation time 40 min, illumination time 30 min, initial inoculation about 4.5×10^6 CFU/mL) [Log CFU/mL] | lethality of Salmonella ([3]; riboflavin concentration increased beyond 200 μmol/L, dark incubation 40 min, illumination 30 min) | influence on growth [4] | photodynamic inactivation effect [5]
Cc1cc2nc3c(=O)[nH]c(=O)nc-3n(C[C@H](O)[C@H](O)[C@H](O)CO)c2cc1C [riboflavin] | killed | 99.88 | 8.4×10^2 CFU/g | 7.0×10^5 CFU/g | 1.12 | 100 | 100 | extremely low | 2.23 | 6.21 | 6.75 | 6.75 | 6.14 | 100 | 6.21 | apparently decreased |  | 
chlorophyllin ester |  |  |  |  |  |  |  |  |  |  |  |  |  |  |  |  | no influence on the growth | significant photodynamic inactivation effect
